Results as given in patent US12521415B2, “Accelerating repair of mucosal injury using gold(III) compounds” (University of Kentucky Research Foundation, priority 2020, dated 2026).

Key:
[1] = system: breast cancer (MDA-MB-231); experiment: Mitochondrial uptake of AuPhos by gold content (graphite furnace atomic absorption spectroscopy) in MDA-MB-231; type: cell-based; conditions: cancerous epithelial cells (MDA-MB-231)
Excerpt: (§1) FIGS. 8A-8J present properties of AuPhos. FIG. 8A includes a chemical structure of AuPhos. FIG. 8B includes extrapolated AuPhos-induced OCR (complex I) in liver mitochondria. […] FIG. 8E provides weight change in AuPhos-treated mice over time. FIG. 8F presents stability of AuPhos in PBS and DMEM. FIG. 8G presents stability of AuPhos in PBS and DMEM. FIG. 8H includes an AuPhos-induced Heat map of DEG (left Panel), obtained using log 2(Fold Change) and p-Value <0.00001 thresholds in MDA-MB-231(107) cells (n=2), and the top six hits of KEGG analysis (right panel). FIG. 8I presents biodistribution and pharmacokinetics of AuPhos in different tissues; Colon, Small bowel, Lung, Kidney, Spleen, Liver, Heart and Blood after single dose (oral, 25 mg/kg) administration of AuPhos at 6 h, 12 h and 24 h. FIG. 8J presents biodistribution and pharmacokinetics of AuPhos in different tissues stool after single dose (oral, 25 mg/kg) administration of AuPhos at 6 h, 12 h and 24 h.
Changing the geometry and stabilizing ligands of gold compounds, such as the use of bidentate frameworks, promote different mitochondrial effects.

[2] = Toxicity (weight change) in AuPhos-treated mice over time; type: in vivo, mouse
Excerpt: as §1
This observation was mitochondrial complex I-driven when different substrates, i.e. pyruvate and succinate, were used to measure the OCR. Transcriptomics was used to study global changes in mRNA in response to a 12 h exposure of AuPhos to MDA-MB-231 cells (FIG. 8H).

[3] = Biodistribution and pharmacokinetics of AuPhos in tissues and stool after single oral dose; type: in vivo, mouse; conditions: single oral 25 mg/kg dose
Excerpt: as §1
FIGS. 16A-16E illustrate the pharmacokinetics and effects of AuPhos on mitochondrial bioenergetics. FIG. 16A. Biodistribution and pharmacokinetics of AuPhos in different tissues; Colon, Small bowel, Spleen, Liver after a single intragastric (i.g.) gavage (25 mg/kg) with measurements of AuPhos tissue levels (graphite furnace atomic absorption spectroscopy) at times indicated. FIG. 16B. […]

colonic NCM460 cells = experiment: MitoSOX Red assay of mtROS (superoxide) production; type: cell-based, human
Experimental: FIG. 11A includes representative images showing AuPhos-induced (200 nM) mtROS (superoxide) production using MitoSOX Red assay.
Given the in vivo data in FIG. 10, it was determined if AuPhos increases ROS levels within mitochondria (mtROS). To examine this possibility, colonic NCM460 cells were cultured, treated with a positive control (Rotenone), AuPhos (200 nM) or AuPhos with PEG-SOD (negative control) and analyzed with MitoSOX Red (an indicator of mitochondrial superoxide). […] Studies in FIGS. 11C and 11D used human colonoids isolated from normal patients to examine effects of AuPhos on hydrogen peroxide (H2O2) production from normal and low-dose TNF-stimulated colonoids.

[4] = system: normal human colonic biopsies; experiment: Western blot of human colonic biopsies incubated with AuPhos; type: cell-based
Experimental: (§2) FIG. 14A Normal human colonic biopsies were incubated a^t 4° C. with AuPhos×3 hrs and membrane fractions examined for mitochondrial complexes expression by WB. FIG. 14B TNF-stimulated colonic NCM460 cells were treated overnight with AuPhos at concentrations indicated. WB for markers indicated are shown in nuclear and membranous protein fractions. FIG. 14C Markers of PI3K pathway were probed in nuclear and cytosolic fractions of AuPhos-treated NCM460 cells (treated with TNF). FIG. 14D NCM460 cell were treated overnight with TNF and probed for the ROS-induced P-PTEN, which inactivates PTEN and activates PI3K.
Control or DSS colitis mice were gavaged with vehicle (−) or AuPhos (+) (as in FIG. 2) and sacrificed on D14. WB of isolated IEC proteins indicated are shown in nuclear and membranous protein fractions along with densitometry. (#mice=4 for each condition). *p<0.04. FIG. 16E. Normal human colonic biopsies were incubated at 4° C. with AuPhos×3 hrs. Membranous and nuclear fractions examined for indicated proteins by WB.
The effects of AuPhos in Px-accelerated IL-10KO mice by beginning treatment on D21 (7D after cessation of Px) when colitis is severe is shown in FIG. 13A. AuPhos-induced mitochondrial biogenesis and PI3K signaling. […]

[5] = system: TNF-stimulated colonic NCM460 cells; experiment: Western blot of TNF-stimulated NCM460 cells treated with AuPhos (mitochondrial biogenesis, PI3K markers); type: cell-based, human; conditions: WB
Experimental: as §2
The effects of AuPhos in Px-accelerated IL-10KO mice by beginning treatment on D21 (7D after cessation of Px) when colitis is severe is shown in FIG. 13A. AuPhos-induced mitochondrial biogenesis and PI3K signaling. To examine the effect of AuPhos on mitochondrial biogenesis in human colonic IEC, fresh biopsies were cultured with a dose range of AuPhos and examined (after 3 h) for mitochondrial complex levels. […] Lastly, TNF stimulates p-PTEN in NCM460 cells indicative of ROS-induced PTEN inactivation as published. It is likely that induction of mtROS by AuPhos enhances PI3K signaling which promotes mitochondrial biogenesis (PGC1α and TFAM) as well as cooperate with Wnt to enhance β-catenin signaling in fissioning crypts.

[Cl][Au]1([c]2ccccc2Cc2ccccn2)[P](c2ccccc2)(c2ccccc2)c2ccccc2[P]1(c1ccccc1)c1ccccc1 [AuPhos]
mitochondrial localization (gold content) [1]: localizes in the mitochondria | liver toxicity ([2]; mice, data not shown): not observed | toxicity in mice ([2]; over 20 days): no toxicity | evacuation in the stool [3]: ≤ 12 h | tissue biodistribution [3]: clear accumulation in the small and large bowel tissues | AuPhos-induced mtROS production with PEG-SOD (colonic NCM460 cells; AuPhos 200 nM with PEG-SOD (negative control), NCM460): specifically inhibited with PEG-SOD | rise in mtROS production (colonic NCM460 cells; AuPhos 200 nM, NCM460 cells, MitoSOX Red): 45% | mitochondrial complex levels ([4]; fresh human biopsies, dose range of AuPhos, after 3 h, WB): rapid increased in complexes | mitochondrial complex levels and downstream signaling ([4]; human biopsies, 4° C., AuPhos x3 hrs, WB (FIG. 16E)): increases mitochondrial complex levels and downstream signaling | markers of PI3K [pAkt and pS6 kinase (pS6)] ([5]; NCM460 cells treated with TNF): induced markers of PI3K | PGC1a and TFAM protein ([5]; NCM460 cells, TNF-stimulated, overnight AuPhos): induces PGC1a and TFAM | nuclear pp-catenin5 ([5]; NCM460 cells): induction of nuclear pp-catenin5
